# Results reported in ChEMBL document CHEMBL1201862, “PubChem BioAssay data set” (2004).
#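 Protocol summary: plate cells (96-well), add compound at 5 concentrations, incubate 48 h, interpolate endpoints linearly. Here, GI50 denotes the concentration required for 50% inhibition of growth.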 Active and inactive are the calls of the source. Cut-off read from the data, not from the text of the source: active = GI50 up to about 1.1 µM and inactive = higher.
# Assays:
# Assay in all cases: DTP human tumour cell line panel, 48 h
# SF-268 = test system: SF-268
# HL-60 = test system: HL-60
# KM12 = test system: KM12
# HT-29 = test system: HT-29
# HOP-62 = test system: HOP-62
# NCI-H23 = test system: NCI-H23
# MOLT-4 = test system: MOLT-4
# HCC 2998 = test system: HCC 2998
# OVCAR-5 = test system: OVCAR-5
# CAKI-1 = test system: CAKI-1
# A498 = test system: A498
# RXF 393 = test system: RXF 393
# HCT-116 = test system: HCT-116
# ACHN = test system: ACHN
# K562 = test system: K562
# OVCAR-8 = test system: OVCAR-8
# SK-MEL-28 = test system: SK-MEL-28
# SNB-75 = test system: SNB-75
# OVCAR-4 = test system: OVCAR-4
# HCT-15 = test system: HCT-15
# T47D = test system: T47D
# RPMI-8226 = test system: RPMI-8226
# Hs-578T = test system: Hs-578T
# MDA-MB-435 = test system: MDA-MB-435
# SK-OV-3 = test system: SK-OV-3
# SK-MEL-2 = test system: SK-MEL-2
# LOX IMVI = test system: LOX IMVI
# BT-549 = test system: BT-549
# UO-31 = test system: UO-31
# SK-MEL-5 = test system: SK-MEL-5
# Malme-3M = test system: Malme-3M
# PC-3 = test system: PC-3
# NCI-H522 = test system: NCI-H522
# SNB-19 = test system: SNB-19
# MCF7 = test system: MCF7
# SF-295 = test system: SF-295
# OVCAR-3 = test system: OVCAR-3
# TK-10 = test system: TK-10
# SW-620 = test system: SW-620
# HOP-92 = test system: HOP-92
# A549 = test system: A549
# UACC-62 = test system: UACC-62
# SR = test system: SR
# U-251 = test system: U-251
# M14 = test system: M14
# SN12C = test system: SN12C
# 786-0 = test system: 786-0
# NCI-H460 = test system: NCI-H460
# CCRF-CEM = test system: CCRF-CEM
# NCI-H226 = test system: NCI-H226
# DU-145 = test system: DU-145
# EKVX = test system: EKVX
# MDA-MB-231 = test system: MDA-MB-231
# NCI/ADR-RES = test system: NCI/ADR-RES
# COLO 205 = test system: COLO 205
# UACC-257 = test system: UACC-257
# SF-539 = test system: SF-539
# IGROV-1 = test system: IGROV-1
smiles,measurement,setting,value
O=C(c1ccc2ccccc2c1)N(Cc1cccnc1)C(=S)N(Cc1cccnc1)C(=O)c1ccc2ccccc2c1,GI50,SF-268,29.2 µM (inactive)
same,GI50,HL-60,40.8 µM (inactive)
same,GI50,KM12,22 µM (inactive)
same,GI50,HT-29,30 µM (inactive)
same,GI50,HOP-62,23.2 µM (inactive)
same,GI50,NCI-H23,23.1 µM (inactive)
same,GI50,MOLT-4,41.3 µM (inactive)
same,GI50,HCC 2998,16.5 µM (inactive)
same,GI50,OVCAR-5,55 µM (inactive)
same,GI50,CAKI-1,22.2 µM (inactive)
same,GI50,A498,32.9 µM (inactive)
same,GI50,RXF 393,19.3 µM (inactive)
same,GI50,HCT-116,35.7 µM (inactive)
same,GI50,ACHN,32.1 µM (inactive)
same,GI50,K562,41.6 µM (inactive)
same,GI50,OVCAR-8,25.7 µM (inactive)
same,GI50,SK-MEL-28,36.9 µM (inactive)
same,GI50,SNB-75,24.9 µM (inactive)
same,GI50,OVCAR-4,20.7 µM (inactive)
same,GI50,HCT-15,32.1 µM
same,GI50,T47D,26.3 µM (inactive)
same,GI50,RPMI-8226,32.9 µM (inactive)
same,GI50,Hs-578T,49.9 µM (inactive)
same,GI50,MDA-MB-435,34 µM (inactive)
same,GI50,SK-OV-3,46.3 µM (inactive)
same,GI50,SK-MEL-2,25.6 µM (inactive)
same,GI50,LOX IMVI,19 µM (inactive)
same,GI50,BT-549,17 µM (inactive)
same,GI50,UO-31,28.6 µM (inactive)
same,GI50,SK-MEL-5,20.6 µM (inactive)
same,GI50,Malme-3M,> 100 µM (inactive)
same,GI50,PC-3,28.3 µM (inactive)
same,GI50,NCI-H522,37.4 µM (inactive)
same,GI50,SNB-19,37.2 µM (inactive)
same,GI50,MCF7,32.7 µM (inactive)
same,GI50,SF-295,34.7 µM (inactive)
same,GI50,OVCAR-3,20.5 µM (inactive)
same,GI50,TK-10,31.1 µM (inactive)
same,GI50,SW-620,49.5 µM (inactive)
same,GI50,HOP-92,26.5 µM (inactive)
same,GI50,A549,39.3 µM (inactive)
same,GI50,UACC-62,26 µM (inactive)
same,GI50,SR,45.2 µM (inactive)
same,GI50,U-251,19 µM (inactive)
same,GI50,M14,20.8 µM (inactive)
same,GI50,SN12C,64 µM (inactive)
same,GI50,786-0,25.2 µM (inactive)
same,GI50,NCI-H460,30.6 µM (inactive)
same,GI50,CCRF-CEM,60.7 µM (inactive)
same,GI50,NCI-H226,61.2 µM (inactive)
same,GI50,DU-145,27 µM (inactive)
same,GI50,EKVX,22.8 µM (inactive)
same,GI50,MDA-MB-231,23.2 µM (inactive)
same,GI50,NCI/ADR-RES,30 µM (inactive)
same,GI50,COLO 205,29.2 µM (inactive)
same,GI50,UACC-257,19.5 µM (inactive)
same,GI50,SF-539,40 µM (inactive)
O=C1c2ccccc2/N=C(/c2cc3c(cc2Cl)Sc2nccn2S3(=O)=O)OS(=O)(=O)N1c1ccccc1,GI50,SF-268,37.3 µM (inactive)
same,GI50,HL-60,31.3 µM (inactive)
same,GI50,KM12,23 µM (inactive)
same,GI50,HT-29,23.3 µM (inactive)
same,GI50,HOP-62,21.7 µM (inactive)
same,GI50,NCI-H23,22.4 µM (inactive)
same,GI50,MOLT-4,9.33 µM (inactive)
same,GI50,HCC 2998,8.36 µM (inactive)
same,GI50,OVCAR-5,19.4 µM (inactive)
same,GI50,CAKI-1,35.7 µM (inactive)
same,GI50,A498,> 100 µM (inactive)
same,GI50,RXF 393,20.8 µM (inactive)
same,GI50,HCT-116,15.5 µM (inactive)
same,GI50,ACHN,25.8 µM (inactive)
same,GI50,K562,35.2 µM (inactive)
same,GI50,OVCAR-8,17.4 µM (inactive)
same,GI50,SNB-75,7.4 µM (inactive)
same,GI50,OVCAR-4,21.1 µM (inactive)
same,GI50,HCT-15,20.2 µM
same,GI50,T47D,> 100 µM (inactive)
same,GI50,RPMI-8226,18.6 µM (inactive)
same,GI50,Hs-578T,46.8 µM (inactive)
same,GI50,MDA-MB-435,21.3 µM (inactive)
same,GI50,SK-OV-3,36.3 µM (inactive)
same,GI50,LOX IMVI,8.09 µM (inactive)
same,GI50,BT-549,17.8 µM (inactive)
same,GI50,UO-31,26 µM (inactive)
same,GI50,Malme-3M,73.8 µM (inactive)
same,GI50,PC-3,44.4 µM (inactive)
same,GI50,NCI-H522,5.31 µM (inactive)
same,GI50,SNB-19,33.7 µM (inactive)
same,GI50,MCF7,24.6 µM (inactive)
same,GI50,SF-295,16.9 µM (inactive)
same,GI50,OVCAR-3,37 µM (inactive)
same,GI50,TK-10,24.4 µM (inactive)
same,GI50,SW-620,24.9 µM (inactive)
same,GI50,HOP-92,80.5 µM (inactive)
same,GI50,A549,30.3 µM (inactive)
same,GI50,UACC-62,20.5 µM (inactive)
same,GI50,SR,10.8 µM (inactive)
same,GI50,U-251,29.2 µM (inactive)
same,GI50,M14,16.9 µM (inactive)
same,GI50,SN12C,32.1 µM (inactive)
same,GI50,786-0,38.4 µM (inactive)
same,GI50,NCI-H460,29.8 µM (inactive)
same,GI50,CCRF-CEM,4.65 µM (inactive)
same,GI50,NCI-H226,39.4 µM (inactive)
same,GI50,DU-145,37.4 µM (inactive)
same,GI50,EKVX,30 µM (inactive)
same,GI50,MDA-MB-231,22.7 µM (inactive)
same,GI50,COLO 205,19.9 µM (inactive)
same,GI50,UACC-257,64.7 µM (inactive)
same,GI50,SF-539,36.7 µM (inactive)
FC(F)=C(c1ccc(-c2ccc(Cl)cc2)cc1)C(F)(F)F,GI50,SF-268,23.9 µM (inactive)
same,GI50,HL-60,45.3 µM (inactive)
same,GI50,KM12,19.3 µM (inactive)
same,GI50,HT-29,25.6 µM (inactive)
same,GI50,NCI-H23,17.5 µM (inactive)
same,GI50,MOLT-4,32.3 µM (inactive)
same,GI50,OVCAR-5,17.5 µM (inactive)
same,GI50,CAKI-1,19.8 µM (inactive)
same,GI50,A498,16.8 µM (inactive)
same,GI50,RXF 393,20.6 µM (inactive)
same,GI50,HCT-116,17.5 µM (inactive)
same,GI50,ACHN,17.3 µM (inactive)
same,GI50,K562,26.2 µM (inactive)
same,GI50,OVCAR-8,24.3 µM (inactive)
same,GI50,SK-MEL-28,12.4 µM (inactive)
same,GI50,SNB-75,11 µM (inactive)
same,GI50,OVCAR-4,18.5 µM (inactive)
same,GI50,HCT-15,20.4 µM
same,GI50,T47D,28.2 µM (inactive)
same,GI50,RPMI-8226,23.3 µM (inactive)
same,GI50,Hs-578T,26.1 µM (inactive)
same,GI50,MDA-MB-435,20.2 µM (inactive)
same,GI50,SK-OV-3,21 µM (inactive)
same,GI50,SK-MEL-2,23.7 µM (inactive)
same,GI50,BT-549,18.2 µM (inactive)
same,GI50,UO-31,16.4 µM (inactive)
same,GI50,SK-MEL-5,18.2 µM (inactive)
same,GI50,Malme-3M,17.2 µM (inactive)
same,GI50,PC-3,17.3 µM (inactive)
same,GI50,NCI-H522,20.3 µM (inactive)
same,GI50,SNB-19,19.3 µM (inactive)
same,GI50,IGROV-1,17 µM (inactive)
same,GI50,SF-295,22.5 µM (inactive)
same,GI50,TK-10,15.8 µM (inactive)
same,GI50,SW-620,20 µM (inactive)
same,GI50,HOP-92,15.1 µM (inactive)
same,GI50,A549,17.9 µM (inactive)
same,GI50,UACC-62,19 µM (inactive)
same,GI50,SR,23.3 µM (inactive)
same,GI50,U-251,16.7 µM (inactive)
same,GI50,M14,19.7 µM (inactive)
same,GI50,SN12C,20.3 µM (inactive)
same,GI50,786-0,19.8 µM (inactive)
same,GI50,NCI-H460,17.7 µM (inactive)
same,GI50,CCRF-CEM,26.8 µM (inactive)
same,GI50,DU-145,18.7 µM (inactive)
same,GI50,EKVX,19.7 µM (inactive)
same,GI50,MDA-MB-231,17.7 µM (inactive)
same,GI50,NCI/ADR-RES,26.1 µM (inactive)
same,GI50,COLO 205,17.9 µM (inactive)
same,GI50,UACC-257,20 µM (inactive)
same,GI50,SF-539,20.7 µM (inactive)
